Test [1] deals with M. suipneumoniae JF 435. Description: MIC against mycoplasma in vitro. The format is cell-based.
Test [2] has as its system M. suipneumoniae J2206/183^b. Description: MIC against mycoplasma in vitro. The class given is cell-based. The note with it: M. suipneumoniae J2206/183^b, 6 days, 37° C.
Test [3] deals with M. suipneumoniae PW/C/210. Description: MIC against mycoplasma in vitro. The class given is cell-based. Conditions: Mesomycoplasma hyopneumoniae, 144 h.
The test system of test [4] is M. suipneumoniae UCD 1. Kind of test: MIC against mycoplasma in vitro. The class given is cell-based.
The test system of test [5] is M. suipneumoniae NCTC 10110. Description: MIC against mycoplasma in vitro. The class given is cell-based. The note with it: M. suipneumoniae NCTC 10110, 6 days, 37° C.
In test [6] the test system is M. hyosynoviae ATCC 25591. Kind of test: MIC against mycoplasma in vitro. The format is cell-based.
In test [7] the test system is M. bovis NCTC 10131. Kind of test: microbe, parasite or virus in culture. The class given is cell-based.
Test [8] has as its system M. dispar NCTC 10125. Description: MIC against mycoplasma in vitro. The format is cell-based.
Test [9] relates to M. gallisepticum S6. Description: MIC against mycoplasma in vitro. The class given is cell-based.
Test [10] has as its system M. pneumoniae ATCC 15492. Description: MIC against mycoplasma in vitro. The class given is cell-based.
Test [11] concerns P. mirabilis 889. Kind of test: MIC against human bacteria in vitro. The class given is cell-based. Conditions: P. mirabilis 889, 5% chocolated horse blood agar, 18 hours.
Test [12] relates to Pasteurella multocida 1633. Kind of test: MIC against human bacteria in vitro. The class given is cell-based. Conditions: Pasteurella multocida 1633, 5% chocolated horse blood agar, 18 hours.
Test [13] has as its system Staph. aureus Oxford. Kind of test: MIC against human bacteria in vitro. The format is cell-based. Conditions: Staph. aureus Oxford, 5% chocolated horse blood agar, 18 hours.
The test system of test [14] is E. coli NCTC 10418. Kind of test: MIC against veterinary bacteria in vitro.
Protocol: (§1) The activity of the compounds of the Examples against various veterinarily important bacteria, was assayed in vitro using two-fold serial dilutions in Diagnostic Sensitivity Test Agar inoculated with 10^4 organisms.
Test [15] deals with E. coli E1. Description: MIC against veterinary bacteria in vitro.
Protocol: as §1
In test [16] the test system is Bord. bronchiseptica B08. Kind of test: MIC against veterinary bacteria in vitro.
Protocol: as §1
Test [17] deals with Bord. bronchiseptica B09. Description: MIC against veterinary bacteria in vitro.
Protocol: as §1
Test [18] relates to Past. multocida PA1. Description: MIC against veterinary bacteria in vitro.
Protocol: as §1
In test [19] the test system is Staph. aureus B4 (pen. resistant). Description: MIC against veterinary bacteria in vitro.
Protocol: as §1
Test [20] relates to Strep. suis (group D) SPS11. Kind of test: MIC against veterinary bacteria in vitro.
Protocol: as §1
Test [21] relates to Strep. agalactiae SPA1. Kind of test: MIC against veterinary bacteria in vitro.
Protocol: as §1
Test [22] relates to B. subtilis ATCC 6633. Description: MIC against veterinary bacteria in vitro.
Protocol: as §1
In test [23] the test system is Past. haemolytica PA5. Kind of test: MIC against veterinary bacteria in vitro. The note with it: Past. haemolytica PA5; Diagnostic Sensitivity Test Agar, 18 hours.
Protocol: as §1
Where [24] appears, read: Mesomycoplasma hyopneumoniae, 144 h, read-out: MIC.
[25] abbreviates: Mesomycoplasma hyopneumoniae, NCTC10110, 144 h, read-out: MIC.
[26] abbreviates: Proteus mirabilis, read-out: MIC.
Setting [27] is: Staphylococcus aureus, read-out: MIC.
Setting [28] is: Escherichia coli, NCTC10418, 18 h.
Where [29] appears, read: Bordetella bronchiseptica, B08, 18 h.
Where [30] appears, read: Bordetella bronchiseptica, B09, 18 h.
Where [31] appears, read: Pasteurella multocida, PA1, 18 h.
[32] abbreviates: Streptococcus agalactiae, SPA1, 18 h.
Where [33] appears, read: Bacillus subtilis, ATCC6633, 18 h.

SMILES strings stand for the structures. Converted amounts (≈) assume the structure as drawn. Where two headings read alike, the source gives them in different places. Bounds are passed on as bounds.

The values that follow come from US5041567A, “Antibacterial monic acid derivatives” (Beecham Group plc, priority 1982, dated 1991).

For `C/C(=C\c1ncc(-c2ccccc2[N+](=O)[O-])o1)C[C@@H]1OC[C@H](C[C@@H]2O[C@H]2[C@@H](C)[C@H](C)O)[C@@H](O)[C@H]1O` [Example 26, 5-o-Nitrophenyl-2-(1-normon-2-yl)oxazole A], the MIC in [1] (Mesomycoplasma hyopneumoniae, JF435, 144 h) came out at 2.5 µg/mL (≈ 5.12 µM); in test [2] (setting [24]), 5 µg/mL (≈ 10.2 µM); in test [3] it was 1 µg/mL (≈ 2.05 µM); in [4] (Mesomycoplasma hyopneumoniae, UCD1, 144 h) it was 2.5 µg/mL (≈ 5.12 µM); in test [5] (setting [25]) it was 5 µg/mL (≈ 10.2 µM); in test [6] (144 h, M. hyosynoviae ATCC 25591, 6 days, 37° C., read-out: MIC), 0.5 µg/mL (≈ 1.02 µM). Further, the MIC in test [7] (NCTC10131, 144 h) is 0.025 µg/mL (≈ 0.0512 µM); in [8] (144 h), 1 µg/mL (≈ 2.05 µM); in test [9] (Mycoplasmoides gallisepticum, S6, 144 h), 2.5 µg/mL (≈ 5.12 µM); in test [10] (Mycoplasmoides pneumoniae, ATCC15492, 144 h), 2.5 µg/mL (≈ 5.12 µM); in [11] (setting [26]), over 128 µg/mL; in test [12] (read-out: MIC), 16 µg/mL (≈ 32.8 µM). Further, the MIC in test [13] (setting [27]) is 4 µg/mL (≈ 8.19 µM); in test [14] (setting [28]), over 80 µg/mL; in test [15] (Escherichia coli, E1, 18 h), over 80 µg/mL; in test [16] (setting [29]), 80 µg/mL (≈ 164 µM); in [17] (setting [30]) it was 20 µg/mL (≈ 40.9 µM); in test [18] (setting [31]), 10 µg/mL (≈ 20.5 µM). The MIC in test [19] (Staphylococcus aureus, 18 h) is 2.5 µg/mL (≈ 5.12 µM); in test [20] (Streptococcus suis, 18 h), 10 µg/mL (≈ 20.5 µM); in [21] (setting [32]) it was 2.5 µg/mL (≈ 5.12 µM); in test [22] (setting [33]) it was 0.312 µg/mL (≈ 0.639 µM).

Regarding `C/C(=C\c1ncc(Cc2ccccc2)o1)C[C@@H]1OC[C@H](C[C@@H]2O[C@H]2[C@@H](C)[C@H](C)O)[C@@H](O)[C@H]1O` [Example 27, 5-Benzyl-2-(1-normon-2-yl)oxazole A], the MIC came to 10 µg/mL (≈ 21.9 µM) in test [1] (Mesomycoplasma hyopneumoniae, JF435, 144 h, M. suipneumoniae JF 435, 6 days, 37° C., read-out: MIC); 10 µg/mL (≈ 21.9 µM) in test [2] (setting [24]); 5 µg/mL (≈ 10.9 µM) in test [3] (M. suipneumoniae PW/C/210, 6 days, 37° C., read-out: MIC); 10 µg/mL (≈ 21.9 µM) in [4] (Mesomycoplasma hyopneumoniae, UCD1, 144 h, M. suipneumoniae UCD 1, 6 days, 37° C., read-out: MIC); 10 µg/mL (≈ 21.9 µM) in test [5] (setting [25]); 2.5 µg/mL (≈ 5.46 µM) in test [6] (144 h). Also, the MIC in [7] (NCTC10131, 144 h) is 0.05 µg/mL (≈ 0.109 µM); in [8] (144 h) it was 2.5 µg/mL (≈ 5.46 µM); in test [9] (Mycoplasmoides gallisepticum, 144 h, M. gallisepticum S6, 6 days, 37° C., read-out: MIC) it was over 10 µg/mL; in test [10] (Mycoplasmoides pneumoniae, ATCC15492, 144 h, M. pneumoniae ATCC 15492, 6 days, 37° C., read-out: MIC), 10 µg/mL (≈ 21.9 µM); in test [11] (setting [26]), over 64 µg/mL; in test [12] (read-out: MIC), 32 µg/mL (≈ 69.9 µM). The MIC in [13] (setting [27]) is 8 µg/mL (≈ 17.5 µM); in [14] (setting [28]) it was over 80 µg/mL; in [15] (Escherichia coli, E1, 18 h), over 80 µg/mL; in test [16] (setting [29]), over 80 µg/mL; in test [17] (setting [30]) it was 80 µg/mL (≈ 175 µM); in [18] (setting [31]) it was 20 µg/mL (≈ 43.7 µM). The MIC is 2.5 µg/mL (≈ 5.46 µM) in test [19] (Staphylococcus aureus, 18 h); over 80 µg/mL in [20] (Streptococcus suis, 18 h); 20 µg/mL (≈ 43.7 µM) in test [21] (setting [32]); 2.5 µg/mL (≈ 5.46 µM) in test [22] (setting [33]).

For `CC(=Cc1cnc(-c2ccccc2)o1)CC1OCC(CC2OC2C(C)C(C)O)C(O)C1O` (stereo not drawn) [Example 35, 5-(1-Normon-2-yl)-2-phenyloxazole A], the MIC was over 10 µg/mL in test [1] (M. suipneumoniae JF 435, 6 days, 37° C.); over 10 µg/mL in test [2]; over 10 µg/mL in [4] (M. suipneumoniae UCD 1, 6 days, 37° C.); over 10 µg/mL in [5]; over 10 µg/mL in [6] (M. hyosynoviae ATCC 25591, 6 days, 37° C.); 2.5 µg/mL (≈ 5.64 µM) in [7] (M. bovis NCTC 10131, 6 days, 37° C.). Besides, the MIC was over 10 µg/mL in test [8] (M. dispar NCTC 10125, 6 days, 37° C.); over 10 µg/mL in test [9] (M. gallisepticum S6, 6 days, 37° C.); over 10 µg/mL in test [10] (M. pneumoniae ATCC 15492, 6 days, 37° C.); over 128 µg/mL in test [11]; over 128 µg/mL in test [12]; over 128 µg/mL in test [13]. The MIC was over 80 µg/mL in test [14] (E. coli NCTC 10418, Diagnostic Sensitivity Test Agar, 18 hours, 37° C.); over 80 µg/mL in test [15] (E. coli E1, Diagnostic Sensitivity Test Agar, 18 hours, 37° C.); over 80 µg/mL in [16] (Bord. bronchiseptica B08, Diagnostic Sensitivity Test Agar, 18 hours); over 80 µg/mL in test [17] (Bord. bronchiseptica B09, Diagnostic Sensitivity Test Agar, 18 hours); 80 µg/mL (≈ 180 µM) in [18] (Past. multocida PA1, Diagnostic Sensitivity Test Agar, 18 hours); over 80 µg/mL in [23]. The MIC in test [19] (Staph. aureus B4 (pen. resistant), Diagnostic Sensitivity Test Agar, 18 hours) is over 80 µg/mL; in [20] (Strep. suis (group D) SPS11, Diagnostic Sensitivity Test Agar, 18 hours), over 80 µg/mL; in test [21] (Strep. agalactiae SPA1, Diagnostic Sensitivity Test Agar, 18 hours), over 80 µg/mL; in [22] (B. subtilis ATCC 6633, Diagnostic Sensitivity Test Agar, 18 hours), over 80 µg/mL.
